This note sets out measurements from patent USRE30241E, “Esters of 3-(hydroxy or hydroxymethyl)-4-hydroxyphenyl aminomethyl ketones” (Sterling Drug Inc., priority 1970, dated 1980).

For series [1], the system named is guinea pig bronchioles constricted by carbachol. In words: Bronchodilator Test Method II, in vitro perfused guinea pig lung. To be noted: for ED50: carbachol (Doryl) 1:5 million. The procedure: In this method bronchodilator activity in vitro was determined by testing the effect of graded doses of the test compounds on guinea pig bronchioles constricted by carbachol, using the technique reported by Sollman and von Oettingen, Proc. Soc, Exp. Biol. Med., 25,692 (1928) as modified by Tainter, Pedden, and James, J. Pharm. Exp. Ther., 51, 371 (1934) and by Luduena, von Euler, Tullar, and Lands, Arch. intern. Pharmacol., III, 392 (1957).

Series [2] relates to carbachol- or histamine-induced bronchoconstriction. Nature of the series: Bronchodilator Test Method I, anesthetized dog, intravenous activity. Format: in vivo. The settings on record: Canis lupus familiaris, read-out: Bronchodilatation; for inhibition in vivo at 0.0055 mg/kg: 5.5 mcg/kg i.v.; for inhibition in vivo at 0.0056 mg/kg: 5.6 mcg/kg i.v.; for inhibition in vivo at 0.0112 mg/kg: 11.2 mcg/kg i.v.; for inhibition in vivo at 0.112 mg/kg: 112.0 mcg/kg i.v.; for inhibition in vivo at 0.0224 mg/kg: 22.4 mcg/kg i.v.; for inhibition in vivo at 0.0285 mg/kg: 28.5 mcg/kg i.v.; for inhibition in vivo at 0.114 mg/kg: 114 mcg/kg i.v.; for inhibition in vivo at 0.228 mg/kg: 228 mcg/kg i.v.; for inhibition in vivo at 0.0012 mg/kg: 1.2 mcg/kg i.v.; for inhibition in vivo at 0.003 mg/kg: 3.0 mcg/kg i.v. The procedure, abridged:
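Pentobarbital-anesthetized (30 mg/kg i.v.), open-chest, artificially ventilated dogs were given i.v. carbachol (4-6 µg/kg) or histamine diphosphate (35-45 µg/kg). Test compound was given i.v. mixed with, after, or 1-10 min before the constrictor.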

A short description of series [3]: Solubility and pH of salts.

SMILES strings stand for the structures. Where two headings read alike, the source gives them in different places.

One may read the solubility as the dissolved amount per volume that the medium holds. For the molecule `CC(C)CC(=O)Oc1ccc(C(O)CNC(C)(C)C)cc1OC(=O)CC(C)C.Cl` (stereo not drawn) [Example 3, 3,4-bis(isovaleryloxy)-alpha-(tert-butylaminomethyl)-benzyl alcohol hydrochloride], the ED50 in series [1] is 0.6 µg (base). Also, the “Duration, Mean” value in series [1] (dose 1.2 mcg (base)) is reported as 18 ± 4 min. Also, the inhibition in vivo at 0.00055 mg/kg in series [2] (1 min, 0.55 mcg/kg i.v., 1-2 min) was found to be 32%. The inhibition in vivo at 0.0011 mg/kg in series [2] (1 min, 1.1 mcg/kg i.v., 1-2 min) was 54%. The inhibition in vivo at 0.0022 mg/kg in series [2] (1 min, 2.2 mcg/kg i.v., 1-2 min) was 74%. For the same molecule, in series [3] (1 percent aqueous solution of the salt), the “pH of a 1 percent aqueous solution” value is listed as 5.4. In addition, in series [3] (1 percent aqueous solution, N/10 sodium hydroxide to pH 7.0), the “precipitation on raising pH to 7.0” value is reported as “a precipitate formed”. In addition, the solubility in series [3] (water) is ≥ 200 mg/mL.

As to `CCC(C)C(=O)Oc1ccc(C(O)CNC(C)(C)C)cc1OC(=O)C(C)CC.Cl` (stereo not drawn) [Example 4, 3,4-bis(2-methylbutanoyloxy)-alpha-(tert-butylaminomethyl)benzyl alcohol hydrochloride], the ED50 in series [1] is 0.45 µg (base). For the same molecule, the “Duration, Mean” value in series [1] (dose 1 mcg (base)) turned out to be 20 ± 3 min. Further, the inhibition in vivo at 0.0055 mg/kg in series [2] (2 min, 2 min) came to 48%; in series [2] (0.5 h, 30 min), 5%; in series [2] (1 h, 60 min), 0%. The solubility in series [3] (water) was ≥ 50 mg/mL.

For the molecule `CC(C)(C)NCC(O)c1ccc(OC(=O)C(C)(C)C)c(OC(=O)C(C)(C)C)c1.Cl` (stereo not drawn) [Example 5, 3,4-bis(pivalyloxy)-alpha-(tert-butylaminomethyl)benzyl alcohol hydrochloride], the ED50 in series [1] (hydrochloride) was 0.94 µg (base). Further, the “Duration, Mean” value in series [1] (dose 2 mcg (base)) came to 18 ± 4.2 min. For the same molecule, in series [2] (5 min, 2.8 mcg/kg i.v., 5 min), the inhibition in vivo at 0.0028 mg/kg was found to be 14%. Further, the inhibition in vivo at 0.0056 mg/kg in series [2] (5 min, 5 min) stood at 53%; in series [2] (0.5 h, 30 min), 27%; in series [2] (1 h, 60 min), 26%. The inhibition in vivo at 0.0112 mg/kg in series [2] (5 min, 5 min) is 57%; in series [2] (0.5 h, 30 min) it was 30%; in series [2] (1 h, 60 min), 4%. The inhibition in vivo at 0.112 mg/kg in series [2] (5 min, 5 min) came out at 100%; in series [2] (0.5 h, 30 min), 92%; in series [2] (1 h, 60 min) it was 59%; in series [2] (2 h, 120 min) it was 13%. Also, the inhibition in vivo at 0.0224 mg/kg in series [2] (0.5 h, 30 min) worked out at 81%; in series [2] (1 h, 60 min), 62%; in series [2] (2 h, 120 min) it was 62%; in series [2] (3 h, 180 min), 15%; in series [2] (4 h, 240 min) it was 0%. Also, in series [3] (water), the solubility is ≥ 50 mg/mL.

For the molecule `CC(C)(C)CC(=O)Oc1ccc(C(O)CNC(C)(C)C)cc1OC(=O)CC(C)(C)C.Cl` (stereo not drawn) [Example 7, 3,4-bis(3,3-dimethylbutanoyloxy)-alpha-(tert-butylaminomethyl)benzyl alcohol hydrochloride], the ED50 in series [1] was 23 µg (base). Moreover, in series [1] (dose 32 mcg (base)), the “Duration, Mean” value came out at 85 ± 17 min. Moreover, the inhibition in vivo at 0.0285 mg/kg was 28% in series [2] (5 min, 5 min); 32% in series [2] (0.5 h, 30 min); 24% in series [2] (1 h, 60 min); 24% in series [2] (2 h, 120 min); 22% in series [2] (3 h, 180 min); 23% in series [2] (4 h, 240 min). Also, the inhibition in vivo at 0.114 mg/kg in series [2] (5 min, 5 min) came out at 52%; in series [2] (0.5 h, 30 min), 42%; in series [2] (1 h, 60 min) it was 33%; in series [2] (2 h, 120 min), 25%; in series [2] (3 h, 180 min), 19%. Moreover, the inhibition in vivo at 0.228 mg/kg came out at 98% in series [2] (5 min, 5 min); 77% in series [2] (0.5 h, 30 min); 68% in series [2] (1 h, 60 min); 56% in series [2] (2 h, 120 min); 50% in series [2] (3 h, 180 min); 44% in series [2] (4 h, 240 min). Besides, the solubility in series [3] (water) is ≥ 10 mg/mL.

On to `CC(C)(C)NCC(O)c1ccc(OC(=O)C2CCCCC2)c(OC(=O)C2CCCCC2)c1.Cl` (stereo not drawn) [Example 15, 3,4-bis(cyclohexanecarbonyloxy)-alpha-(tert-butylaminomethyl)benzyl alcohol hydrochloride], for which the ED50 in series [1] was 1.3 µg (base). In addition, the “Duration, Mean” value in series [1] (dose 3.2 mcg (base)) was 53 ± 7 min. Also, the inhibition in vivo at 0.0012 mg/kg in series [2] (2 min, 2 min) was found to be 20%; in series [2] (0.5 h, 30 min) it was 27%; in series [2] (1 h, 60 min), 8%; in series [2] (2 h, 120 min) it was 0%. Also, the inhibition in vivo at 0.003 mg/kg worked out at 36% in series [2] (2 min, 2 min); 31% in series [2] (1 h, 60 min); 26% in series [2] (2 h, 120 min); 20% in series [2] (3 h, 180 min). Also, the “precipitation on dilution with three volumes of water” value in series [3] (1 percent solution in dimethyl sulfoxide) is on record as “no precipitate formed”. The solubility in series [3] (polyethyleneglycol, organic solvent or mixture) was < 1 mg/mL; in series [3] (water), < 1 mg/mL.

Consider `CC(C)CC(=O)Oc1cc(C(O)CNC(C)(C)C)ccc1OC(=O)C(C)(C)C.Cl` (stereo not drawn) [Example 71, 3-(isovaleryloxy)-4-(pivalyloxy)-alpha-(tert-butylaminomethyl)benzylalcohol hydrochloride], for which, in series [1], the ED50 was 0.63 µg (base). Also, the “Duration, Mean” value in series [1] (dose 2 mcg (base)) was found to be 26 min. Also, in series [3] (water), the solubility is ≥ 50 mg/mL.
